Reference: patent US6737383B1, “Herbicidal oxadiazolidines” (priority 1999, dated 2004)

Assays:
bedstraw = experiment: Test B pre/postemergence bedstraw; assay type: in vivo, Galium aparine
Procedure, shortened: (§1)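 Herbicidal effect was estimated by eye on a ten-point control scale after plants spent twelve to sixteen days in a greenhouse following soil or foliar treatment. Foliar sprays targeted plants at one to four leaves; all doses were formulated in a non-phytotoxic solvent with surfactant.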

blackgrass = experiment: Test B pre/postemergence blackgrass; assay type: in vivo, Alopecurus myosuroides
Procedure, shortened: as §1

surinam grass = experiment: Test B pre/postemergence surinam grass; assay type: in vivo, Brachiaria decumbens
Procedure, shortened: as §1

cocklebur = experiment: Test B pre/postemergence cocklebur; assay type: in vivo, Xanthium strumarium
Procedure, shortened: as §1

corn = experiment: Test B pre/postemergence corn; assay type: in vivo, Zea mays
Procedure, shortened: as §1

crabgrass = experiment: Test B pre/postemergence crabgrass; assay type: in vivo, Digitaria sanguinalis
Procedure, shortened: as §1

giant foxtail = experiment: Test B pre/postemergence giant foxtail; assay type: in vivo, Setaria faberii
Procedure, shortened: as §1

morningglory = experiment: Test B pre/postemergence morningglory; assay type: in vivo, Ipomoea hederacea
Procedure, shortened: as §1

rape = experiment: Test B pre/postemergence rape; assay type: in vivo, Brassica napus
Procedure, shortened: as §1

soybean = experiment: Test B pre/postemergence soybean; assay type: in vivo, Glycine max
Procedure, shortened: as §1

velvetleaf = experiment: Test B pre/postemergence velvetleaf; assay type: in vivo, Abutilon theophrasti
Procedure, shortened: as §1

wheat = experiment: Test B pre/postemergence wheat; assay type: in vivo, Triticum aestivum
Procedure, shortened: as §1

wild oat = experiment: Test B pre/postemergence wild oat; assay type: in vivo, Avena fatua
Procedure, shortened: as §1

smallflower flatsedge = experiment: Test B flood test smallflower flatsedge; assay type: in vivo, Cyperus difformis
Procedure, shortened: (§2)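 Plants were grown to the 2-leaf stage before treatment with test chemical, then held in a greenhouse for twelve to sixteen days. Injury was visually rated against untreated controls on a 0–10 scale, where 0 is no effect and 10 is complete control.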

duck salad = experiment: Test B flood test duck salad; assay type: in vivo, Heteranthera limosa
Procedure, shortened: as §2

bamyardgrass = experiment: Test B flood test barnyardgrass; assay type: in vivo, Echinochloa crus-galli
Procedure, shortened: as §2

[1] = Postemergence, Rate 125 g/ha, scale of 0 to 10 where 0 is no effect and 10 is complete control
[2] = Preemergence, Rate 62 g/ha, scale of 0 to 10 where 0 is no effect and 10 is complete control
[3] = Preemergence, Rate 125 g/ha, 0 is no effect, 10 is complete control
[4] = Preemergence, Rate 250 g/ha, scale 0 to 10, 0 is no effect, 10 is complete control
[5] = Preemergence, Rate 500 g/ha, scale 0 to 10 (0 no effect, 10 complete control)
[6] = Rate 62 g/ha, Postemergence, scale of 0 to 10 where 0 is no effect and 10 is complete control
[7] = Rate 250 g/ha, Postemergence, scale 0 to 10, 0 is no effect, 10 is complete control
[8] = Rate 500 g/ha, Postemergence, scale 0 to 10
[9] = Rate 1000 g/ha, Preemergence, scale 0 to 10 (0 no effect, 10 complete control)
[10] = Rate 2000 g/ha, Preemergence, scale 0 to 10
[11] = Postemergence, Rate 1000 g/ha, scale 0 to 10 (0 no effect, 10 complete control)
[12] = Rate 2000 g/ha, Postemergence, scale 0 to 10
[13] = Postemergence (flood test species), Rate 125 g/ha, scale of 0 to 10 where 0 is no effect and 10 is complete control
[14] = Rate 62 g/ha, Postemergence section, flood test species, scale of 0 to 10 where 0 is no effect and 10 is complete control
[15] = Rate 250 g/ha, Postemergence (flood test), scale 0 to 10, 0 is no effect, 10 is complete control
[16] = Rate 250 g/ha, Pre-emergence, flood-test species, scale 0 to 10, 0 is no effect, 10 is complete control
[17] = Rate 500 g/ha, listed under Postemergence (flood test species), scale 0 to 10
[18] = Rate 2000 g/ha, Pre-emergence (as headed), scale 0 to 10
[19] = Rate 500 g/ha, headed Pre-emergence (flood test species), scale 0 to 10 (0 no effect, 10 complete control)
[20] = Rate 1000 g/ha, Pre-emergence (as headed), scale 0 to 10

CC(C)N(C(=O)n1oc(=O)n(N(C)c2ccccc2)c1=O)c1ccc(F)cc1 [Compound 177]
Bedstraw plant response rating (bedstraw; [1]): 0 | Bedstraw plant response rating (bedstraw; [2]): 0 | Bedstraw plant response rating (0 to 10 scale) (bedstraw; [3]): 0 | Bedstraw plant response rating (bedstraw; [4]): 9 | Bedstraw plant response rating (bedstraw; [5]): 10 | Bedstraw plant response rating (bedstraw; [6]): 0 | Plant response rating, Bedstraw (bedstraw; [7]): 5 | Bedstraw plant response rating (bedstraw; [8]): 6 | Plant response rating, Bedstraw (bedstraw; [9]): 10 | Bedstraw plant response rating (bedstraw; [10]): 10 | Blackgrass plant response rating (blackgrass; [1]): 0 | Blackgrass plant response rating (blackgrass; [11]): 3 | Blackgrass plant response rating (blackgrass; [2]): 0 | Blackgrass plant response rating (0 to 10 scale) (blackgrass; [3]): 0 | Blackgrass plant response rating (blackgrass; [4]): 6 | Blackgrass plant response rating (blackgrass; [5]): 6 | Blackgrass plant response rating (blackgrass; [6]): 0 | Plant response rating, Blackgrass (blackgrass; [7]): 0 | Blackgrass plant response rating (blackgrass; [8]): 2 | Plant response rating, Blackgrass (blackgrass; [9]): 7 | Blackgrass plant response rating (blackgrass; [12]): 6 | Blackgrass plant response rating (blackgrass; [10]): 9 | B. signalgrass plant response rating (surinam grass; [1]): 0 | B. signalgrass plant response rating (surinam grass; [11]): 0 | B. signalgrass plant response rating (surinam grass; [2]): 0 | B. signalgrass plant response rating (0 to 10 scale) (surinam grass; [3]): 0 | B. signalgrass plant response rating (surinam grass; [4]): 0 | B. signalgrass plant response rating (surinam grass; [5]): 0 | B. signalgrass plant response rating (surinam grass; [6]): 0 | Plant response rating, B. signalgrass (surinam grass; [7]): 0 | B. signalgrass plant response rating (surinam grass; Rate 500 g/ha, Postemergence, scale 0 to 10, 0 no effect, 10 complete control): 0 | Plant response rating, B. signalgrass (surinam grass; [9]): 5 | B. signalgrass plant response rating (surinam grass; [12]): 0 | B. signalgrass plant response rating (surinam grass; [10]): 9 | Cocklebur plant response rating (cocklebur; [1]): 0 | Cocklebur plant response rating (cocklebur; [11]): 0 | Cocklebur plant response rating (cocklebur; [2]): 0 | Cocklebur plant response rating (0 to 10 scale) (cocklebur; [3]): 0 | Cocklebur plant response rating (cocklebur; [4]): 0 | Cocklebur plant response rating (cocklebur; [5]): 0 | Cocklebur plant response rating (cocklebur; [6]): 0 | Plant response rating, Cocklebur (cocklebur; [7]): 0 | Cocklebur plant response rating (cocklebur; [8]): 3 | Cocklebur plant response rating (cocklebur; [12]): 0 | Cocklebur plant response rating (cocklebur; [10]): 2 | Corn plant response rating (corn; [1]): 0 | Corn plant response rating (corn; [11]): 0 | Corn plant response rating (corn; [2]): 0 | Corn plant response rating (0 to 10 scale) (corn; [3]): 0 | Corn plant response rating (corn; [4]): 0 | Corn plant response rating (corn; [5]): 0 | Corn plant response rating (corn; [6]): 0 | Plant response rating, Corn (corn; [7]): 0 | Corn plant response rating (corn; [8]): 0 | Plant response rating, Corn (corn; [9]): 0 | Corn plant response rating (corn; [12]): 0 | Corn plant response rating (corn; [10]): 0 | Crabgrass plant response rating (crabgrass; [1]): 0 | Crabgrass plant response rating (crabgrass; [11]): 0 | Crabgrass plant response rating (crabgrass; [2]): 1 | Crabgrass plant response rating (0 to 10 scale) (crabgrass; [3]): 6 | Crabgrass plant response rating (crabgrass; [4]): 9 | Crabgrass plant response rating (crabgrass; [5]): 9 | Crabgrass plant response rating (crabgrass; [6]): 0 | Plant response rating, Crabgrass (crabgrass; [7]): 2 | Crabgrass plant response rating (crabgrass; [8]): 3 | Plant response rating, Crabgrass (crabgrass; [9]): 8 | Crabgrass plant response rating (crabgrass; [12]): 0 | Crabgrass plant response rating (crabgrass; [10]): 9 | Giant foxtail plant response rating (giant foxtail; [1]): 0 | Giant foxtail plant response rating (giant foxtail; [11]): 0 | Giant foxtail plant response rating (giant foxtail; [2]): 3 | Giant foxtail plant response rating (0 to 10 scale) (giant foxtail; [3]): 3 | Giant foxtail plant response rating (giant foxtail; [4]): 10 | Giant foxtail plant response rating (giant foxtail; [5]): 10 | Giant foxtail plant response rating (giant foxtail; [6]): 0 | Plant response rating, Giant foxtail (giant foxtail; [7]): 0 | Giant foxtail plant response rating (giant foxtail; [8]): 0 | Plant response rating, Giant foxtail (giant foxtail; [9]): 10 | Giant foxtail plant response rating (giant foxtail; [12]): 2 | Giant foxtail plant response rating (giant foxtail; [10]): 10 | Morningglory plant response rating (morningglory; [1]): 0 | Morningglory plant response rating (morningglory; [11]): 1 | Morningglory plant response rating (morningglory; [2]): 0 | Morningglory plant response rating (0 to 10 scale) (morningglory; [3]): 0 | Morningglory plant response rating (morningglory; [4]): 0 | Morningglory plant response rating (morningglory; [5]): 0 | Morningglory plant response rating (morningglory; [6]): 0 | Plant response rating, Morningglory (morningglory; [7]): 2 | Morningglory plant response rating (morningglory; [8]): 4 | Plant response rating, Morningglory (morningglory; [9]): 0 | Morningglory plant response rating (morningglory; [12]): 1 | Morningglory plant response rating (morningglory; [10]): 0 | Rape plant response rating (rape; [1]): 0 | Rape plant response rating (rape; [11]): 0 | Rape plant response rating (rape; [2]): 0 | Rape plant response rating (0 to 10 scale) (rape; [3]): 0 | Rape plant response rating (rape; [4]): 0 | Rape plant response rating (rape; [5]): 0 | Rape plant response rating (rape; [6]): 0 | Plant response rating, Rape (rape; [7]): 0 | Rape plant response rating (rape; [8]): 0 | Plant response rating, Rape (rape; [9]): 0 | Rape plant response rating (rape; [12]): 3 | Rape plant response rating (rape; [10]): 0 | Soybean plant response rating (soybean; [1]): 1 | Soybean plant response rating (soybean; [11]): 3 | Soybean plant response rating (soybean; [2]): 0 | Soybean plant response rating (0 to 10 scale) (soybean; [3]): 0 | Soybean plant response rating (soybean; [4]): 0 | Soybean plant response rating (soybean; [5]): 0 | Soybean plant response rating (soybean; [6]): 1 | Plant response rating, Soybean (soybean; [7]): 2 | Soybean plant response rating (soybean; [8]): 4 | Plant response rating, Soybean (soybean; [9]): 0 | Soybean plant response rating (soybean; [12]): 4 | Soybean plant response rating (soybean; [10]): 0 | Velvetleaf plant response rating (velvetleaf; [11]): 0 | Velvetleaf plant response rating (velvetleaf; [2]): 0 | Velvetleaf plant response rating (0 to 10 scale) (velvetleaf; [3]): 0 | Velvetleaf plant response rating (velvetleaf; [4]): 0 | Velvetleaf plant response rating (velvetleaf; [5]): 0 | Plant response rating, Velvetleaf (velvetleaf; [7]): 0 | Velvetleaf plant response rating (velvetleaf; [8]): 3 | Plant response rating, Velvetleaf (velvetleaf; [9]): 0 | Velvetleaf plant response rating (velvetleaf; [12]): 4 | Velvetleaf plant response rating (velvetleaf; [10]): 3 | Wheat plant response rating (wheat; [11]): 3 | Wheat plant response rating (wheat; [2]): 0 | Wheat plant response rating (0 to 10 scale) (wheat; [3]): 0 | Wheat plant response rating (wheat; [4]): 0 | Wheat plant response rating (wheat; [5]): 0 | Plant response rating, Wheat (wheat; [7]): 0 | Wheat plant response rating (wheat; [8]): 4 | Plant response rating, Wheat (wheat; [9]): 0 | Wheat plant response rating (wheat; [12]): 3 | Wheat plant response rating (wheat; [10]): 2 | Wild oats plant response rating (wild oat; [11]): 2 | Wild oats plant response rating (wild oat; [2]): 0 | Wild oats plant response rating (0 to 10 scale) (wild oat; [3]): 0 | Wild oats plant response rating (wild oat; [4]): 0 | Wild oats plant response rating (wild oat; [5]): 2 | Plant response rating, Wild oats (wild oat; [7]): 0 | Wild oats plant response rating (wild oat; [8]): 0 | Plant response rating, Wild oats (wild oat; [9]): 10 | Wild oats plant response rating (wild oat; [12]): 2 | Wild oats plant response rating (wild oat; [10]): 10 | S. Flatsedge plant response rating (smallflower flatsedge; [13]): 0 | S. Flatsedge plant response rating (smallflower flatsedge; Pre-emergence, Rate 1000 g/ha, scale 0 to 10 (0 no effect, 10 complete control)): 0 | S. Flatsedge plant response rating (smallflower flatsedge; [14]): 0 | Plant response rating, S. Flatsedge (smallflower flatsedge; [15]): 0 | S. Flatsedge plant response rating (smallflower flatsedge; [16]): 0 | S. Flatsedge plant response rating (smallflower flatsedge; [17]): 0 | S. Flatsedge plant response rating (smallflower flatsedge; Rate 500 g/ha, Pre-emergence, flood test species, scale 0 to 10 (0 no effect, 10 complete control)): 0 | S. Flatsedge plant response rating (smallflower flatsedge; [18]): 0 | Ducksalad plant response rating (duck salad; [13]): 0 | Ducksalad plant response rating (duck salad; [14]): 0 | Plant response rating, Ducksalad (duck salad; [15]): 2 | Ducksalad plant response rating (duck salad; [16]): 0 | Plant response rating, Ducksalad (duck salad; [19]): 0 | Ducksalad plant response rating (duck salad; [17]): 2 | Ducksalad plant response rating (duck salad; [20]): 0 | Ducksalad plant response rating (duck salad; [18]): 0 | Barnyardgrass plant response rating (bamyardgrass; [13]): 0 | Barnyardgrass plant response rating (bamyardgrass; [14]): 0 | Plant response rating, Barnyardgrass (bamyardgrass; [15]): 0 | Barnyardgrass plant response rating (bamyardgrass; [16]): 0 | Plant response rating, Barnyardgrass (bamyardgrass; [19]): 0 | Barnyardgrass plant response rating (bamyardgrass; [17]): 0 | Barnyardgrass plant response rating (bamyardgrass; [20]): 0 | Barnyardgrass plant response rating (bamyardgrass; Rate 2000 g/ha, Pre-emergence (as headed), scale 0 to 10, 0 no effect, 10 complete control): 0
